This test has as its system MDA-MB-231 parent or DTC. The experiment in a line: Glucose uptake (2-NBDG) determined by FACS. The conditions noted are these: sub-lethal docetaxel (25 nM), MDA-MB-231. Type of test: cell-based. On the procedure: MDA-MB-231 (ATCC), MDA-MB-468 and 4T-1 mammary carcinoma cells (ATCC) were cultured in DMEM containing 10% Fetal Bovine Serum (FBS) at 37 C and 5% CO2. DU145 and DU145-TxR were provided by A. Mizokami^63 and cultured in DMEM containing 10% FBS, resistant line included 100 nM paclitaxel in the culture media. During treatments with chemotherapeutics, cells were grown to semi-confluence and treated with indicated concentrations of chemotherapy in serum-containing medium for indicated time points. When small molecule inhibitors were included in treatments, they were added simultaneously with chemotherapy. For siRNA gene knockdown, cells were transfected with silencer-select siRNA plasmids (Ambion, Invitrogen, Grand Island, N.Y.) pan-CD44(1) (s2682) panCD44(2) (s2681), siHIF1A (s6539) using lipofectamine 2000 (Invitrogen, Carlsbad Calif.) following manufacturer protocol and cultured for 72 hours prior to treatment. Scrambled siRNA was used as a control. For chemotherapy treatment experiments: Cancer cells were plated at a density of 0.5-1×10^5 cells/ml and allowed to adhere for 24-48 hr. When cells reached ˜70% confluency they were treated with cytotoxics at indicated concentrations for 24-48 hours and utilized for subsequent assays. For experiments in which a shorter incubation was used (i.e. 15 min-4 hours) fresh media was added 24 hours prior to addition of chemotherapy suspended to stock concentration in PBS. For generation of DTC: Cells were treated for 48 hours with chemotherapy. Following washes with PBS, adherent cells were trypsinized and re-plated at a density of 1.5-2×10^5 cells/ml and cultured in serum-containing medium. After 24 hours incubation, floating cells were removed and remaining cells were washed with 1× PBS and considered as chemotherapy-tolerant cells. A population of drug naïve parent cells were always cultured alongside DTC and fresh media was added at every interval that experimental population (DTC) received fresh media.
In vitro detection of glucose uptake was performed using 2-(N-7-Nitrobenz-2-oxa-1,3-diazol-4-yl)Amino)-2-Deoxyglucose (2-NBDG) (Invitrogen, Carlsbad Calif.), dissolved in DMSO to 50 mM. Cells were pre-treated with kinase inhibitors or vehicle for 3 hours in glucose- and phenol red-free media before addition of 50 μM 2-NBDG and subsequently read by FACS ex/em 488/535 nm. ROS was determined by pre-loading cells with CM-DCFDA (1 μM), washed 2 times with PBS and subsequently treated with H2O2 or vehicle; when kinase inhibitors were included in treatment, cells were first incubated with inhibitor for 3 hours prior to CM-DCFDA loading. Fluorescence was then determined by FACS ex/em 488/535 nm. For the following assays, cells were trypsinized and counted by Nexcelom cell counter (Lawrence, Mass.) prior to being subjected to analysis in order to achieve a quantitative value per cell: Reduced glutathione was determined using a colorimetric glutathione recycling system by DTNB following manufacturer protocol (Biovision, Milpitas Calif.). ATP analysis was performed using the ATP colorimetric analysis kit (Biovision) according to manufacturer protocol. Reductive stress was detected using the Enzo nitroreductase hypoxia kit (Enzo Life Sciences, Ann Arbor Mich.) following manufacturer protocol and visualized by fluorescent microscopy; a set of non-docetaxel-treated control cells loaded with fluorescent probe were compared against docetaxel-treated cells to derive a % redox stress increase which was calculated as fluorescence intensity of nitroreductase probe per cell and expressed as increase from vehicle. Protein synthesis was measured by two means 1. L-azidohomoalanine amino acid analog of methionine containing an azide moiety was added to cultured cells (parent or DTC) for 3 hours which is incorporated into proteins during active protein synthesis. […]

On to `CC(=O)O[C@@]12CO[C@@H]1C[C@H](O)[C@@]1(C)C(=O)[C@H](O)C3=C(C)[C@@H](OC(=O)[C@H](O)[C@@H](NC(=O)OC(C)(C)C)c4ccccc4)C[C@@](O)([C@@H](OC(=O)c4ccccc4)[C@H]21)C3(C)C` [docetaxel], for which the “time point at which augmented glucose uptake was observed” value stood at 24 h.

For the origin of these results see patent US10300070B2, “Metabolically-activated drug conjugates to overcome resistance in cancer therapy” (The Brigham and Women's Hospital, Inc., priority 2014, dated 2019).
